The target in this experiment is T1, Dihydrolipoyl dehydrogenase (Mycobacterium tuberculosis (strain ATCC 25618 / H37Rv), UniProt P9WHH9).
T1 sequence (P9WHH9 whole entry): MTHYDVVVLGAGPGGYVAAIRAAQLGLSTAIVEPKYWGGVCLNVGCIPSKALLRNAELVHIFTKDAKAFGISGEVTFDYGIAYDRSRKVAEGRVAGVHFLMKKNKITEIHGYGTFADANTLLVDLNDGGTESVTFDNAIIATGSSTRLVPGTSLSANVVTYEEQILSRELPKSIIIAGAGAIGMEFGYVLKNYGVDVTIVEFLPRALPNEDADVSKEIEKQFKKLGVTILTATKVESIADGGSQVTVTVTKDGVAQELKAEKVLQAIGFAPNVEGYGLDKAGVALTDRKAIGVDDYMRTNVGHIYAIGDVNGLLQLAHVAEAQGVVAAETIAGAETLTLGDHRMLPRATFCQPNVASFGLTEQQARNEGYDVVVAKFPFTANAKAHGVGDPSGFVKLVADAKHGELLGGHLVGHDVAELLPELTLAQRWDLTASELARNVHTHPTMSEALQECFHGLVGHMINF
The experiment can be described thus: LPD Assay with 30 min preincubation.

For `CC#CCNC(=O)CN(C)S(=O)(=O)c1cc(C)cc2cc(C#N)[nH]c12` [US20240132480, Example 210], the IC50 stood at 38 nM. That is a double-digit nanomolar value.
